Source: patent publication US8071600B2, “Derivatives of 4-piperazin-1-yl-4-benzo[B]thiophene suitable for the treatment of CNS disorders” (Otsuka Pharmaceutical Co., Ltd., priority 2005, dated 2011)
Where a name gives a salt, the structure may show the parent alone.

Work on `CN1CNc2ccc(OCCCN3CCN(c4cccc5sccc45)CC3)cc2C1.Cl` yielded a melting point of 203.1 to 204.4 °C.
For `COc1cc(NC=O)cc(C)c1OCCCN1CCN(c2cccc3sccc23)CC1.Cl`, the melting point was 247.5 to 253 °C (dec.).
With `Cl.c1cc(N2CCN(CCCOc3ccc4c(c3)NCCO4)CC2)c2ccsc2c1` the melting point was 207.9 to 208.8 °C.
`CN1CCOc2cc(OCCCN3CCN(c4cccc5sccc45)CC3)ccc21.Cl` showed a melting point of 248.1 to 249.6 °C.
Molecule `CC(=O)N1CCC(OCCCN2CCN(c3cccc4sccc34)CC2)CC1.Cl` has a melting point of 208 to 210 °C.
`CCS(=O)(=O)Nc1cc(C)c(OCCCN2CCN(c3cccc4sccc34)CC2)c(OC)c1.Cl` gave a melting point of 235.5 to 237.5 °C.
`CN(C)C(=O)Nc1cc(OCCCCN2CCN(c3cccc4sccc34)CC2)n(C)n1.Cl` gave a melting point of 186 to 187.5 °C.
In the case of `CCNC(=O)c1ccc(OCCCN2CCN(c3cccc4sccc34)CC2)nc1` (as salt: hydrochloride) [Example 26], the melting point is reported as 201.5 to 207.5 °C.
In the case of `CCNC(=O)c1ccnc(OCCCN2CCN(c3cccc4sccc34)CC2)c1` (as salt: hydrochloride) [Example 32], the melting point is reported as 140 to 141.5 °C.
For `Cc1ccc(OCCCN2CCN(c3cccc4sccc34)CC2)cn1` (as salt: hydrochloride) [Example 40], the melting point was 234 to 236 °C.
Molecule `CNC(=O)c1cc(OCCCN2CCN(c3cccc4sccc34)CC2)ncn1` (as salt: hydrochloride) [Example 58] has a melting point of 205 to 209.5 °C.
Work on `CCNC(=O)c1cc(OCCCN2CCN(c3cccc4sccc34)CC2)n(C)n1` (as salt: hydrochloride) [Example 62] yielded a melting point of 210.5 to 214.5 °C.
For `CCNC(=O)c1cc(OCCCN2CCN(c3cccc4sccc34)CC2)no1` (as salt: hydrochloride) [Example 72], the melting point was 219.5 to 222.5 °C (dec.).
With `CCNC(=O)c1csc(OCCCN2CCN(c3cccc4sccc34)CC2)n1` (as salt: hydrochloride) [Example 73] the melting point was 151 to 153.5 °C.
Molecule `c1cc(N2CCN(CCCCOc3ccncc3)CC2)c2ccsc2c1` (as salt: hydrochloride) [Example 80] has a melting point of 183 to 185 °C.
Work on `Cn1cnc2ccc(OCCCN3CCN(c4cccc5sccc45)CC3)cc2c1=O` (as salt: hydrochloride) [Example 95] yielded a melting point of 252.9 to 254.3 °C.
For `O=C1Cc2ccc(OCCCCN3CCN(c4cccc5sccc45)CC3)cc2N1` (as salt: hydrochloride) [Example 127], the melting point was 215 to 217 °C.
For `O=C1Nc2cc(OCCCCN3CCN(c4cccc5sccc45)CC3)ccc2CO1` (as salt: hydrochloride) [Example 133], the melting point was 253 to 258 °C (dec.).
Work on `CCN(CC)CCNC(=O)c1ccc(OCCCN2CCN(c3cccc4sccc34)CC2)cc1` (as salt: hydrochloride) [Example 160] yielded a melting point of 229.5 to 232.5 °C.
Work on `CNC(=O)c1ccc(OC)c(OCCCN2CCN(c3cccc4sccc34)CC2)c1` (as salt: hydrochloride) [Example 281] yielded a melting point of 163.5 to 165 °C.
In the case of `CCNCc1ccc(OCCCN2CCN(c3cccc4sccc34)CC2)cc1` (as salt: hydrochloride) [Example 286], the melting point is reported as 228 to 241 °C (dec.).
For `CN(C)Cc1ccc(OCCCN2CCN(c3cccc4sccc34)CC2)c(Cl)c1` (as salt: hydrochloride) [Example 303], the melting point was 259 °C (dec.).
In the case of `CCN(C)Cc1ccc(OCCCN2CCN(c3cccc4sccc34)CC2)c(C)c1` (as salt: hydrochloride) [Example 307], the melting point is reported as 256.5 °C (dec.).
For `CN1CCN(Cc2ccc(OCCCN3CCN(c4cccc5sccc45)CC3)cc2)CC1` (as salt: hydrochloride) [Example 314], the melting point was 261.5 °C (dec.).
With `CC(=O)Nc1ccc(OCCCN2CCN(c3cccc4sccc34)CC2)cc1` (as salt: hydrochloride) [Example 343] the melting point was 283 to 285 °C.
For `CCS(=O)(=O)Nc1ccc(OCCCN2CCN(c3cccc4sccc34)CC2)cc1` (as salt: hydrochloride) [Example 345], the melting point was 174 to 176 °C.
With `COc1cc(NC=O)cc(C)c1OCCCN1CCN(c2cccc3sccc23)CC1` (as salt: hydrochloride) [Example 354] the melting point was 247.5 to 253 °C (dec.).
With `COc1cc(N2CCOC2=O)cc(C)c1OCCCN1CCN(c2cccc3sccc23)CC1` (as salt: hydrochloride) [Example 358] the melting point was 247.5 to 251 °C (dec.).
With `COc1cc(N2CCCC2=O)cc(CO)c1OCCCN1CCN(c2cccc3sccc23)CC1` (as salt: hydrochloride) [Example 359] the melting point was 144 to 145 °C.
With `CCN(CC)CCc1ccc(OCCCN2CCN(c3cccc4sccc34)CC2)cc1` (as salt: hydrochloride) [Example 368] the melting point was 224 to 232 °C (dec.).
For `CN(C)CCc1ccc(OCCCN2CCN(c3cccc4sccc34)CC2)cc1` (as salt: hydrochloride) [Example 382], the melting point was 238.5 °C (dec.).
For `COc1cc(NC(=O)CN)cc(C)c1OCCCN1CCN(c2cccc3sccc23)CC1` (as salt: hydrochloride) [Example 1060], the melting point was 268 °C (dec.).
In the case of `COc1cc(N2CCOC2=O)cc(CO)c1OCCCN1CCN(c2cccc3sccc23)CC1` (as salt: hydrochloride) [Example 1071], the melting point is reported as 224 to 226.5 °C (dec.).
In the case of `COc1cc(N2CCCC2)cc(C)c1OCCCN1CCN(c2cccc3sccc23)CC1` (as salt: hydrochloride) [Example 1076], the melting point is reported as 246.5 to 249 °C (dec.).
For `COc1cc(N2CCN(C(C)=O)CC2=O)cc(C)c1OCCCN1CCN(c2cccc3sccc23)CC1` (as salt: hydrochloride) [Example 1079], the melting point was 218 to 221.5 °C.
`COC(=O)N1CCN(c2cc(C)c(OCCCN3CCN(c4cccc5sccc45)CC3)c(OC)c2)C(=O)C1` (as salt: hydrochloride) [Example 1080] showed a melting point of 223 to 228 °C.
For `COc1cc(N2CCN(C(C)=O)CC2)cc(C)c1OCCCN1CCN(c2cccc3sccc23)CC1` (as salt: hydrochloride) [Example 1083], the melting point was 257 to 261 °C (dec.).
Work on `COc1cc(N2CCN(C(C)=O)CC2)cc(CO)c1OCCCN1CCN(c2cccc3sccc23)CC1` (as salt: hydrochloride) [Example 1084] yielded a melting point of 217.5 to 221 °C.
For `COC(=O)N1CCN(c2cc(C=O)c(OCCCN3CCN(c4cccc5sccc45)CC3)c(OC)c2)CC1` (as salt: hydrochloride) [Example 1086], the melting point was 225 °C (dec.).
In the case of `COc1cc(N2CCCCC2)cc(C)c1OCCCN1CCN(c2cccc3sccc23)CC1` (as salt: hydrochloride) [Example 1089], the melting point is reported as 248 to 251 °C (dec.).
Work on `CN(C)C(=O)N1CCC(OCCCN2CCN(c3cccc4sccc34)CC2)CC1` (as salt: hydrochloride) [Example 1110] yielded a melting point of 202 to 205 °C.
For `CN(C)C(=O)c1csc(OCCCN2CCN(c3cccc4sccc34)CC2)n1` (as salt: hydrochloride) [Example 1113], the melting point was 178 to 182 °C.
`CN(C)c1cc(OCCCCN2CCN(c3cccc4sccc34)CC2)n(C)n1` (as salt: hydrochloride) [Example 1138] gave a melting point of 156.5 to 158.5 °C.
`COC(=O)c1cc(OCCCN2CCN(c3cccc4sccc34)CC2)n(C)n1` [Example 1, methyl 5-[3-(4-benzo[b]thiophen-4-yl-piperazin-1-yl)propoxy]-1-methyl-1H-pyrazole-3-carboxylate] gave a melting point of 109 to 110.5 °C.
With `Cn1nc(C(=O)O)cc1OCCCN1CCN(c2cccc3sccc23)CC1` [Example 2, 5-[3-(4-benzo[b]thiophen-4-yl-piperazin-1-yl)propoxy]-1-methyl-1H-pyrazole-3-carboxylic acid] the melting point was 114.5 to 118 °C.
Work on `COc1cc(N)cc(C)c1OCCCN1CCN(c2cccc3sccc23)CC1` [Example 9, 4-[3-(4-benzo[b]thiophen-4-yl-piperazin-1-yl)-propoxy]-3-methoxy-5-methylaniline] yielded a melting point of 155 to 158 °C.
Work on `C=CCn1nc(C(=O)NC)cc1OCCCN1CCN(c2cccc3sccc23)CC1` [Example 3098, 1-allyl-5-[3-(4-benzo[b]thiophen-4-yl-piperazin-1-yl)propoxy]-1H-pyrazole-3-carboxylic acid methylamide] yielded a melting point of 138.5 to 140.5 °C.
